Results taken from paper PMC4872784 (Oncotarget, 2016).
Where “and” joins values, the source holds several entries; their conditions need not be identical. Equal values may be shown once. Read-outs that look alike come from different tables or passages of the source.

What was measured:
[1] = test system: SEM cells; experiment: alamarBlue cytotoxicity assay, 48h; format: cell-based, human
Method: (§1) Following subtraction of background fluorescence from all wells, fluorescence of drug-treated cells was normalized to that of vehicle (<0.5% DMSO)-treated cells to determine the effect of each drug concentration on viability. Each cell line was tested in triplicate and in at least three independent experiments. IC50 (concentration that inhibits cell growth by 50%) values were calculated using CompuSyn software (ComboSyn, Paramus, NJ). […] In addition several cell lines were initially cultured and tested in alternative media (Supplementary Table S2). […] Colony counts were normalized to vehicle-treated controls (100%). Three independent experiments were performed.
In most experiments, cytotoxicity was assessed using alamarBlue assays (Life Technologies, Grand Island, NY). In experiments using NAC and DFO, which can interfere with alamarBlue assay performance, Trypan Blue dye exclusion was used instead. […]
experiments performed in triplicate. […] Age refers to age […]
at the time of leukemia diagnosis of the patient from whom the cell line was derived. (–) Indicates information unavailable.
*Cell lines with FLT3/ITD mutations.
*The MV-4–11 cell line was derived from a patient with a biphenotypic B-myelomonocytic leukemia; K562 was derived […]
1A. p53 status was obtained from http://cancer.sanger.ac.uk/cell_lines/cbrowse/all and http://p53.free.fr/Database/Cancer_ cell_lines/Leukemia_cancer. html. WT: wild type. Mut: mutant. SM: single mutation. DM: double mutation. MM: multiple mutations. Fs: Frameshift mutation. Null: protein expression undetectable.

[2] = test system: 23 human leukemia cell lines; experiment: alamarBlue cytotoxicity assay, panel summary; format: cell-based
Method: as §1
(§2) In most experiments, cytotoxicity was assessed using alamarBlue assays (Life Technologies, Grand Island, NY). In experiments using NAC and DFO, which can interfere with alamarBlue assay performance, Trypan Blue dye exclusion was used instead.

[3] = test system: MOLM14 cells; experiment: cell cycle distribution (BrdU/7-AAD flow cytometry); format: cell-based, human; details: for sub-G1-phase cells: vehicle 2%; for S-phase cells: vehicle 38%; for G1-phase cells: vehicle 47%
Method: After cell debris was gated out using FSC/SSC parameters, 10,000 cellular events were collected per sample. Data was analyzed and fluorescence compensation performed using FlowJo software, version 10 (Tree Star, Ashland, OR). A. Representative plots from a single experiment.
Cells were pulse-labeled with 10 μM 5-bromo-2-deoxyuridine (BrdU, BD Pharmingen, San Diego, CA) for 90min (37°C), washed in PBS, then fixed in 70% ethanol (1-3d, −20°C). DNA was denatured (2 M HCl, 30min, room temperature) and neutralized (0.1 M Na2B4O7, 10min, room temperature). Cells were stained with APC-conjugated anti-BrdU antibody (BD Pharmingen) and 7-AAD (BioLegend, San Diego, CA), and analyzed by flow cytometry.

[4] = test system: MOLM14 cells; experiment: viable cell counts via Trypan Blue dye exclusion, 48h; format: cell-based, human
Method: (§3) A. Quantification of the percentage of early apoptotic cells (Annexin-V+/7-AAD-) from three independent experiments in which cells were stained for apoptosis with 7-AAD and Annexin-V then analyzed by flow cytometry. […] C. […] 16h after addition of drugs, cells were washed and analyzed by flow cytometry for CM-H2DCFDA fluorescence (indicating total ROS generation) in the FL1 channel. Mean Fluorescence Intensity (MFI) was normalized to that of vehicle control (0.5% DMSO) with no pretreatment. […] Viable cell counts, obtained via Trypan Blue dye exclusion, were normalized to vehicle (0.02% DMSO)-treated samples +/– pretreatment.
as §2

[5] = test system: Jurkat T-cell acute lymphoblastic leukemia (T-ALL) cells; set-up: method as in PMID 23673218; details: cited from earlier work
[6] = test system: primary B-ALL case #109; experiment: intravenous B-ALL primagraft model
Method: Mice were weighed weekly and tumors measured at least twice weekly. […] Mice were euthanized when tumors reached an estimated 2000mg. […] Mice were weighed weekly and observed daily for clinical signs of severe leukemia.
Highly immunodeficient NSG mice, obtained originally from Jackson Laboratory (Bar Harbor, ME), were bred and housed in the UMSOM animal facilities, and handled in a laminar flow hood under aseptic conditions. All experiment procedures and animal care were in compliance with the NIH guidelines for the Care and Use of Laboratory Animals and approved by the UMSOM Institutional Animal Care and Use Committee. Drugs were formulated in Tween 80:ethanol (7:3, v:v) and diluted 1:10 in filtered deionized water immediately before administration. […] Mice were monitored daily and euthanized when tumors reached an estimated mass of 2000mg (using the formula: [length x width^2]/2, assuming density = 1 mg/mm^3) [56]. […] Mice were euthanized for clinical signs of severe leukemia or other severe distress [52].
Mice were weighed weekly and observed daily for clinical signs of severe

[7] = plasma pharmacokinetics after single oral dose; details: NSG mice
Method: (§4) Plasma samples were obtained from 3-6 male NSG mice per time point (15min-24h after drug administration). Symbols represent concentrations of compound by LC/MS-MS detection.
(§5) Blood samples were collected via retro-orbital bleeding into EDTA-coated tubes. PK samples were centrifuged to obtain plasma, which was stored frozen (−80°C) until liquid chromatography/triple quadrupole mass spectrometry (LC/MS-MS) analysis.
(§6) were separated using an Agilent Zorbax Eclipse C18 column (2.1 mm x 50 mm, 3.5 μm) using gradient mobile phase
(§7) (acetonitrile and 2 mM ammonium acetate both containing 0.1% formic acid) and a gradient flow rate (0.2 to 0.4 ml/
(§8) min). An AB Sciex 5500 triple quadrupole mass spectrometer was used for detection. The m/z transitions used were
(§9) The calibration range was 5–1,000 ng/mL for all analytes. Mean drug concentrations were calculated at each time point. PK parameters (plasma
(§10) half-life [T1/2]; time to reach Cmax [Tmax]; maximum plasma concentration [Cmax]; area under the plasma concentration-
(§11) time curve [AUC] from time zero to the last measurable concentration [AUClast]; AUC from time zero to infinity [i.e.,
(§12) the AUClast + the extrapolated AUC from AUClast to infinity; AUC0–∞]; apparent volume of distribution [Vz/F]; body
(§13) weight-adjusted apparent clearance [CL/F/kg]) were calculated from mean drug concentration-time data using non-
(§14) the r2 of the elimination rate constant (λ ) was < 0.9, the AUC , CL/F, and T were not reported (NR).

[8] = test system: Caspase-3/7 activity in MOLM14 cells; experiment: Caspase-Glo 3/7 Assay; format: cell-based, human; details: AS 5 μM, 24h
Method: as §3
Cells were co-stained with […] each 7-AAD and APC-conjugated Annexin-V (BioLegend), in Annexin-V binding buffer and analyzed by flow cytometry. Caspase-3/7 activity was measured using a Caspase-Glo 3/7 Assay (Promega, Madison, WI).

[9] = in vivo; details: NSG, mouse, in vivo, po
Method: Blood samples were collected via
retro-orbital bleeding into EDTA-coated tubes from MOLM14 NSG mice 1 day A-D. and 7 days E-H. after completion of a 5-day drug
CBCs were determined using a Hemavet 950 analyzer.
Normal blood samples were obtained from normal, untreated NSG mice (n = 37) over several years.

[10] = in vivo; details: male, NSG, mouse, plasma, po, 200 mg/kg
Method: as §4, §5, §6, §7, §8, §9, §10, §11, §12, §13, §14

[11] = four 5-day cycles ART-838 40 mg/kg/d
[12] = plasma, single oral dose ART-838 50 mg/kg
[13] = four 5-day cycles AS 150 mg/kg/d

C[C@@H]1CCC2[C@@H](C)[C@@H](CC(COP(=O)(Oc3ccccc3)Oc3ccccc3)C[C@H]3O[C@@H]4O[C@@]5(C)CCC6[C@H](C)CCC([C@H]3C)[C@]64OO5)O[C@@H]3O[C@@]4(C)CCC1[C@@]23OO4 (stereo partly drawn) [ART-838, artemisinin-derived trioxane diphenylphosphate dimer 838]
IC50 ([1]; SEM (B-ALL), 48h, RPMI + 10% FBS, read-out: IC50): 0.029 ± 0.006 µM
-Fold Difference in IC50 between media ([1]; SEM, DMEM + 10% FBS vs RPMI+10% FBS): 9.2
IC50 ([1]; SEM, original medium DMEM + 10% FBS, read-out: IC50 in original medium): 0.268 µM
fold more potent than AS (average) ([2]; across 23 leukemia cell lines): 88 fold
fold more potent than AS (range) ([2]; across 23 leukemia cell lines): 11-315 fold
IC50 ([2]; all 23 leukemia cell lines tested, 48h, read-out: IC50 range): 0.01 to 0.55 µM
IC50 ([2]; including those harboring MLLr and FLT3/ITD, read-out: IC50 against every acute leukemia tested): < 1 µM
sub-G1-phase cells ([3]; 0.1 μM ART-838, 24h): > 10%
S-phase cells ([3]; 0.1 μM ART-838, 24h): < 7%
G1-phase cells ([3]; 0.1 μM ART-838, 24h): > 61%
fold resistance to growth inhibition after DFO pretreatment ([4]; MOLM14, DFO 11 μM pretreatment): 3 fold
fold resistance to growth inhibition after NAC pretreatment ([4]; MOLM14, NAC 25 μM pretreatment): not increased
fold lower IC50 than that of AS [5]: ~70 fold
body weight loss following treatment [6, 11]: No dose-limiting body weight loss
extension of mean survival time [6, 11]: 20 days
prolongation of mean survival time [6, 11]: 55%
Mean time to severe clinical signs of leukemia (surrogate for survival) ([6]; four 5-day cycles ART-838 40 mg/kg/d oral gavage, vehicle 37): 57
Mean time to severe clinical signs of leukemia (surrogate for survival) ([6]; second experiment: two 5-day cycles ART-838 50 mg/kg/d, days 1 and 29, vehicle 28): 47
fold longer T1/2 than DHA ([7]; ART-838 50 mg/kg vs DHA after AS 200 mg/kg, oral): ~6 fold
detection of theoretical metabolites DHA and ART-606 in plasma ([7]; after ART-838 administration, LC/MS-MS): did not detect DHA or ART-606
AUC0–∞ [7, 12]: 951 ng·h/mL
AUClast [7, 12]: 903 ng·h/mL
CL/F/kg [7, 12]: 867 mL/min/kg
Tmax [7, 12]: 1.5 h
Vz/F [7, 12]: 241 L/kg
T1/2 ([7]; plasma, single oral dose ART-838 50 mg/kg, 50 mg/kg): 3.19 h and > 3 h

C[C@H]1[C@H](OC(=O)CCC(=O)O)O[C@@H]2O[C@@]3(C)CC[C@H]4[C@H](C)CC[C@@H]1[C@@]24OO3 [AS, artesunate]
IC50 ([1]; Homo sapiens, SEM (B-ALL), 48h, RPMI + 10% FBS, read-out: IC50): 4.08 ± 1.18 µM
IC50 ([1]; Homo sapiens, SEM, original medium DMEM + 10% FBS, read-out: IC50 in original medium): 18.3 µM
IC50 ([2]; Homo sapiens, 48 h, all 23 leukemia cell lines tested, 48h, read-out: IC50 range): 0.46 to 10.3 µM
IC50 ([2]; Homo sapiens, Leukemia Type: ALL, unit only on plot axis of Figure 1A, read-out: IC50 Range): 0.46 to 10 µM
IC50 ([2]; Homo sapiens, Leukemia Type: ALL, unit only on plot axis of Figure 1A, read-out: Mean IC50): 5 µM
IC50 ([2]; Homo sapiens, Leukemia Type: ALL, unit only on plot axis of Figure 1A, read-out: Median IC50): 4.8 µM
IC50 ([2]; Homo sapiens, Leukemia Type: AML, unit only on plot axis of Figure 1A, read-out: IC50 Range): 0.8 to 6.3 µM
IC50 ([2]; Homo sapiens, Leukemia Type: AML, unit only on plot axis of Figure 1A, read-out: Mean IC50): 2.3 µM
IC50 ([2]; Homo sapiens, Leukemia Type: AML, unit only on plot axis of Figure 1A, read-out: Median IC50): 1.7 µM
sub-G1-phase cells ([3]; 5 μM AS, 24h): > 10%
S-phase cells ([3]; 5 μM AS, 24h): < 7%
G1-phase cells ([3]; 5 μM AS, 24h): > 61%
caspase-3/7 activity [8]: caspase-3/7 activation
IC50 ([4]; Homo sapiens, MOLM-14, MOLM14, 48h, Pre-Treatment: CTRL, unit inferred, read-out: IC50): 0.885 ± 0.057 µM
MTD [9]: 500 to 600 mg/kg
MTD at 5 days/week [9]: 150 to 200 mg/kg
AUC(0-t) [10]: 34.8 ng·h/mL
Cmax [10]: 67 ng/mL and 240 nM
Tmax [10]: 0.25 h
body weight loss following treatment [6, 13]: No dose-limiting body weight loss
extension of mean survival time [6, 13]: 19 days
prolongation of mean survival time [6, 13]: 51%
Mean time to severe clinical signs of leukemia (surrogate for survival) ([6]; four 5-day cycles AS 150 mg/kg/d oral gavage, vehicle 37): 56
Mean time to severe clinical signs of leukemia (surrogate for survival) ([6]; second experiment: two 5-day cycles AS 200 mg/kg/d, days 1 and 29, vehicle 28): 43
time by which plasma declined to undetectable levels ([7]; single oral dose AS 200 mg/kg): ≤ 1 h
